{"source": "patent US20010021697A1", "about": "“METHODS AND COMPOSITIONS FOR THE TREATMENT OF MAMMALIAN INFECTIONS EMPLOYING MEDICAMENTS COMPRISING HYMENOPTERA VENOM, PROTEINAGEOUS OR POLYPEPTIDE COMPONENTS THEREOF, OR ANALOGUES OF SUCH PROTEINACEOUS OR POLYPEPTIDE COMPONENTS” (priority 1987, published 2001)", "assay_type_in_all_cases": "cell-based", "key": {"S. aureus #140A": {"test_system": "S. aureus #140A"}, "E. coli #G1880E": {"test_system": "E. coli #G1880E"}, "[1]": {"test_system": "kanamycin resistant S. aureus", "assay": "Checkerboard titration assay for synergy of honeybee venom with antibiotics (OD660 growth curves)"}}, "note": "Like-named read-outs stand apart in the source and are kept apart here.", "data": [{"smiles": "CC1(C)S[C@@H]2[C@H](NC(=O)[C@H](N)c3ccccc3)C(=O)N2[C@H]1C(=O)O", "note": "[AMP]", "values": [{"measurement": "MEAN A660", "setting": "S. aureus #140A; AMP = 0.05, HBV = 0, T0", "value": 0.013}, {"measurement": "MEAN A660", "setting": "S. aureus #140A; AMP = 0.05, HBV = 0, T2", "value": 0.085}, {"measurement": "MEAN A660", "setting": "S. aureus #140A; AMP = 0.05, HBV = 0, T4", "value": 0.355}, {"measurement": "MEAN A660", "setting": "S. aureus #140A; AMP = 0.05, HBV = 0, T6", "value": 0.552}, {"measurement": "MEAN A660", "setting": "S. aureus #140A; AMP = 0.05, HBV = 0, T12", "value": 0.736}, {"measurement": "MEAN A660", "setting": "S. aureus #140A; AMP = 0.05, HBV = 0, T24", "value": 0.760}, {"measurement": "MEAN A660", "setting": "S. aureus #140A; AMP = 0.05, HBV = 0, TB", "value": 0.689}, {"measurement": "MEAN A66O", "setting": "S. aureus #140A; AMP = 0.1, HBV = 0, T0", "value": 0.013}, {"measurement": "MEAN A66O", "setting": "S. aureus #140A; AMP = 0.1, HBV = 0, T2", "value": 0.085}, {"measurement": "MEAN A66O", "setting": "S. aureus #140A; AMP = 0.1, HBV = 0, T4", "value": 0.257}, {"measurement": "MEAN A66O", "setting": "S. aureus #140A; AMP = 0.1, HBV = 0, T6", "value": 0.248}, {"measurement": "MEAN A66O", "setting": "S. aureus #140A; AMP = 0.1, HBV = 0, T8", "value": 0.155}, {"measurement": "MEAN A66O", "setting": "S. aureus #140A; AMP = 0.1, HBV = 0, T12", "value": 0.095}, {"measurement": "MEAN A66O", "setting": "S. aureus #140A; AMP = 0.1, HBV = 0, T24", "value": 0.347}, {"measurement": "MEAN A660", "setting": "S. aureus #140A; AMP = 0.2, HBV = 0, T0", "value": 0.013}, {"measurement": "MEAN A660", "setting": "S. aureus #140A; AMP = 0.2, HBV = 0, T2", "value": 0.085}, {"measurement": "MEAN A660", "setting": "S. aureus #140A; AMP = 0.2, HBV = 0, T4", "value": 0.202}, {"measurement": "MEAN A660", "setting": "S. aureus #140A; AMP = 0.2, HBV = 0, T6", "value": 0.112}, {"measurement": "MEAN A660", "setting": "S. aureus #140A; AMP = 0.2, HBV = 0, T8", "value": 0.052}, {"measurement": "MEAN A660", "setting": "S. aureus #140A; AMP = 0.2, HBV = 0, T12", "value": 0.037}, {"measurement": "MEAN A660", "setting": "S. aureus #140A; AMP = 0.2, HBV = 0, T24", "value": 0.042}, {"measurement": "MEAN A66O", "setting": "S. aureus #140A; AMP = 0.4, HBV = 0, T0", "value": 0.013}, {"measurement": "MEAN A66O", "setting": "S. aureus #140A; AMP = 0.4, HBV = 0, T2", "value": 0.085}, {"measurement": "MEAN A66O", "setting": "S. aureus #140A; AMP = 0.4, HBV = 0, T4", "value": 0.191}, {"measurement": "MEAN A66O", "setting": "S. aureus #140A; AMP = 0.4, HBV = 0, T6", "value": 0.110}, {"measurement": "MEAN A66O", "setting": "S. aureus #140A; AMP = 0.4, HBV = 0, T8", "value": 0.048}, {"measurement": "MEAN A66O", "setting": "S. aureus #140A; AMP = 0.4, HBV = 0, T12", "value": 0.027}, {"measurement": "MEAN A66O", "setting": "S. aureus #140A; AMP = 0.4, HBV = 0, T24", "value": 0.027}, {"measurement": "MEAN A660", "setting": "E. coli #G1880E; AMP = 0.5, HBV = 0, T0", "value": 0.015}, {"measurement": "MEAN A660", "setting": "E. coli #G1880E; AMP = 0.5, HBV = 0, T2", "value": 0.084}, {"measurement": "MEAN A660", "setting": "E. coli #G1880E; AMP = 0.5, HBV = 0, T4", "value": 0.600}, {"measurement": "MEAN A660", "setting": "E. coli #G1880E; AMP = 0.5, HBV = 0, T6", "value": 1.001}, {"measurement": "MEAN A660", "setting": "E. coli #G1880E; AMP = 0.5, HBV = 0, T8", "value": 0.999}, {"measurement": "MEAN A660", "setting": "E. coli #G1880E; AMP = 0.5, HBV = 0, T12", "value": 1.085}, {"measurement": "MEAN A660", "setting": "E. coli #G1880E; AMP = 0.5, HBV = 0, T24", "value": 1.156}, {"measurement": "MEAN A660", "setting": "E. coli #G1880E; AMP = 1, HBV = 0, T0", "value": 0.015}, {"measurement": "MEAN A660", "setting": "E. coli #G1880E; AMP = 1, HBV = 0, T2", "value": 0.084}, {"measurement": "MEAN A660", "setting": "E. coli #G1880E; AMP = 1, HBV = 0, T4", "value": 0.538}, {"measurement": "MEAN A660", "setting": "E. coli #G1880E; AMP = 1, HBV = 0, T6", "value": 0.628}, {"measurement": "MEAN A660", "setting": "E. coli #G1880E; AMP = 1, HBV = 0, T8", "value": 0.493}, {"measurement": "MEAN A660", "setting": "E. coli #G1880E; AMP = 1, HBV = 0, T12", "value": 0.475}, {"measurement": "MEAN A660", "setting": "E. coli #G1880E; AMP = 1, HBV = 0, T24", "value": 0.504}, {"measurement": "MEAN A660", "setting": "E. coli #G1880E; AMP = 2, HBV = 0, T0", "value": 0.015}, {"measurement": "MEAN A660", "setting": "E. coli #G1880E; AMP = 2, HBV = 0, T2", "value": 0.084}, {"measurement": "MEAN A660", "setting": "E. coli #G1880E; AMP = 2, HBV = 0, T4", "value": 0.428}, {"measurement": "MEAN A660", "setting": "E. coli #G1880E; AMP = 2, HBV = 0, T12", "value": 0.136}, {"measurement": "MEAN A660", "setting": "E. coli #G1880E; AMP = 2, HBV = 0, T24", "value": 0.647}, {"measurement": "MEAN A660", "setting": "E. coli #G1880E; AMP = 4, HBV = 0, T0", "value": 0.015}, {"measurement": "MEAN A660", "setting": "E. coli #G1880E; AMP = 4, HBV = 0, T2", "value": 0.084}, {"measurement": "MEAN A660", "setting": "E. coli #G1880E; AMP = 4, HBV = 0, T4", "value": 0.158}, {"measurement": "MEAN A660", "setting": "E. coli #G1880E; AMP = 4, HBV = 0, T6", "value": 0.063}, {"measurement": "MEAN A660", "setting": "E. coli #G1880E; AMP = 4, HBV = 0, T12", "value": 0.055}, {"measurement": "MEAN A660", "setting": "E. coli #G1880E; AMP = 4, HBV = 0, T24", "value": 0.056}, {"measurement": "MEAN A660", "setting": "[1]; AMP = 0.05, HBV = 0, T0", "value": 0.020}, {"measurement": "MEAN A660", "setting": "[1]; AMP = 0.05, HBV = 0, T2", "value": 0.064}, {"measurement": "MEAN A660", "setting": "[1]; AMP = 0.05, HBV = 0, T4", "value": 0.230}, {"measurement": "MEAN A660", "setting": "[1]; AMP = 0.05, HBV = 0, T6", "value": 0.338}, {"measurement": "MEAN A660", "setting": "[1]; AMP = 0.05, HBV = 0, T8", "value": 0.372}, {"measurement": "MEAN A660", "setting": "[1]; AMP = 0.05, HBV = 0, T12", "value": 0.352}, {"measurement": "MEAN A660", "setting": "[1]; AMP = 0.05, HBV = 0, T24", "value": 0.461}, {"measurement": "MEAN A660", "setting": "[1]; AMP = 0.1, HBV = 0, T0", "value": 0.020}, {"measurement": "MEAN A660", "setting": "[1]; AMP = 0.1, HBV = 0, T2", "value": 0.064}, {"measurement": "MEAN A660", "setting": "[1]; AMP = 0.1, HBV = 0, T4", "value": 0.379}, {"measurement": "MEAN A660", "setting": "[1]; AMP = 0.1, HBV = 0, T6", "value": 0.156}, {"measurement": "MEAN A660", "setting": "[1]; AMP = 0.1, HBV = 0, T8", "value": 0.112}, {"measurement": "MEAN A660", "setting": "[1]; AMP = 0.1, HBV = 0, T12", "value": 0.050}, {"measurement": "MEAN A660", "setting": "[1]; AMP = 0.1, HBV = 0, T24", "value": 0.053}, {"measurement": "MEAN A660", "setting": "[1]; AMP = 0.2, HBV = 0, T0", "value": 0.020}, {"measurement": "MEAN A660", "setting": "[1]; AMP = 0.2, HBV = 0, T2", "value": 0.064}, {"measurement": "MEAN A660", "setting": "[1]; AMP = 0.2, HBV = 0, T4", "value": 0.131}, {"measurement": "MEAN A660", "setting": "[1]; AMP = 0.2, HBV = 0, T6", "value": 0.110}, {"measurement": "MEAN A660", "setting": "[1]; AMP = 0.2, HBV = 0, T8", "value": 0.073}, {"measurement": "MEAN A660", "setting": "[1]; AMP = 0.2, HBV = 0, T12", "value": 0.030}, {"measurement": "MEAN A660", "setting": "[1]; AMP = 0.2, HBV = 0, T24", "value": 0.037}, {"measurement": "MEAN A660", "setting": "[1]; AMP = 0.4, HBV = 0, T0", "value": 0.020}, {"measurement": "MEAN A660", "setting": "[1]; AMP = 0.4, HBV = 0, T2", "value": 0.064}, {"measurement": "MEAN A660", "setting": "[1]; AMP = 0.4, HBV = 0, T4", "value": 0.202}, {"measurement": "MEAN A660", "setting": "[1]; AMP = 0.4, HBV = 0, T6", "value": 0.290}, {"measurement": "MEAN A660", "setting": "[1]; AMP = 0.4, HBV = 0, T8", "value": 0.285}, {"measurement": "MEAN A660", "setting": "[1]; AMP = 0.4, HBV = 0, T12", "value": 0.271}, {"measurement": "MEAN A660", "setting": "[1]; AMP = 0.4, HBV = 0, T24", "value": 0.277}]}]}
